Measurements reported in PubChem BioAssay AID248 (DTP/NCI, 2004).
Toxic doses and inconclusive results are not listed. No stated cut-off is given here; in the data, active means T/C of 150% or more; inactive means T/C below 125%.

Test system: L1210 leukemia ip in BDF1 mice, survival T/C
Assay: NCI In Vivo Anticancer Drug Screen. Data for tumor model L1210 Leukemia (intraperitoneal) in B6D2F1 (BDF1) mice
Conditions: endpoint: mean survival time, higher = longer survival
Outline: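 Survival endpoint. Drug-treated group vs vehicle group, expressed as T divided by C. Tumor passaged by transplantation.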

[1] = dose: 100.0 mg/kg/injection, schedule: Q01DX009 (ip), vehicle: saline with Tween-80
[2] = dose: 200.0 mg/kg/injection, schedule: Q01DX009 (ip), vehicle: saline with Tween-80
[3] = dose: 400.0 mg/kg/injection, schedule: Q01DX009 (ip), vehicle: saline with Tween-80
[4] = dose: 100.0 mg/kg/injection, schedule: Q04DX003 (ip), vehicle: saline with Tween-80
[5] = dose: 25.0 mg/kg/injection, schedule: Q01DX009 (ip), vehicle: saline
[6] = dose: 25.0 mg/kg/injection, schedule: Q04DX003 (ip), vehicle: saline
[7] = dose: 50.0 mg/kg/injection, schedule: Q01DX009 (ip), vehicle: saline
[8] = dose: 50.0 mg/kg/injection, schedule: Q04DX003 (ip), vehicle: saline
[9] = dose: 100.0 mg/kg/injection, schedule: Q01DX009 (ip), vehicle: saline
[10] = dose: 100.0 mg/kg/injection, schedule: Q04DX003 (ip), vehicle: saline
[11] = dose: 200.0 mg/kg/injection, schedule: Q01DX009 (ip), vehicle: saline
[12] = dose: 200.0 mg/kg/injection, schedule: Q04DX003 (ip), vehicle: saline
[13] = dose: 75.0 mg/kg/injection, schedule: Q01DX001 (ip), vehicle: saline
[14] = dose: 100.0 mg/kg/injection, schedule: Q01DX001 (ip), vehicle: saline
[15] = dose: 400.0 mg/kg/injection, schedule: Q01DX009 (ip), vehicle: saline
[16] = dose: 200.0 mg/kg/injection, schedule: Q04DX003 (ip), vehicle: saline with Tween-80
[17] = dose: 400.0 mg/kg/injection, schedule: Q04DX003 (ip), vehicle: saline with Tween-80
[18] = dose: 400.0 mg/kg/injection, schedule: Q04DX003 (ip), vehicle: saline

Measured: T/C

CCCCCCCCCCCCNC(=O)OCCN(CCOC(=O)NCCCCCCCCCCCC)C(=O)COc1ccc(Cl)cc1
inactive: dose: 100.0 mg/kg/injection, schedule: Q01DX009 (ip), vehicle: other 92 % of control | dose: 200.0 mg/kg/injection, schedule: Q01DX009 (ip), vehicle: other 92 % of control | dose: 400.0 mg/kg/injection, schedule: Q01DX009 (ip), vehicle: other 96 % of control

O=C(Nc1ccccc1)c1ccc2c(c1)C(=O)OC2=O
inactive: [1] 102 % of control | [2] 94 % of control | [3] 89 % of control

COc1cc(/C=N/NC(=O)c2ccccc2NC(=O)c2ccccc2)ccc1O
inactive: dose: 100.0 mg/kg/injection, schedule: Q01DX009 (ip), vehicle: Klucel (hydroxypropylcellulose) (HPC) 97 % of control | dose: 200.0 mg/kg/injection, schedule: Q01DX009 (ip), vehicle: Klucel (hydroxypropylcellulose) (HPC) 95 % of control | dose: 400.0 mg/kg/injection, schedule: Q01DX009 (ip), vehicle: Klucel (hydroxypropylcellulose) (HPC) 100 % of control

CC(C)C(C#N)(CCCCN1CCCC1)c1cccc2ccccc12 (stereo unspecified)
inactive: [4] 95 % of control

CC(C)NNC(=O)C(C)N (stereo unspecified)
inactive: dose: 12.5 mg/kg/injection, schedule: Q01DX009 (ip), vehicle: saline 87 % of control | [5] 90 % of control | [6] 89 % of control | [7] 92 % of control | [8] 103 % of control | [9] 92 % of control | [10] 89 % of control | [11] 93 % of control | [12] 86 % of control

Nc1nc(N)c(-c2ccc(Cl)c(Cl)c2)c(C[P+](c2ccccc2)(c2ccccc2)c2ccccc2)n1
inactive: [13] 97 % of control

Clc1ccccc1-c1nc2ccccc2cc1Br
inactive: [14] 97 % of control | dose: 200.0 mg/kg/injection, schedule: Q01DX001 (ip), vehicle: saline 96 % of control | dose: 400.0 mg/kg/injection, schedule: Q01DX001 (ip), vehicle: saline 92 % of control

CC#CCOCC1CO1 (stereo unspecified)
inactive: [9] 100 % of control | dose: 100.0 mg/kg/injection, schedule: Q04DX003 (ip), vehicle: saline sonified 117 % of control | [11] 99 % of control | dose: 200.0 mg/kg/injection, schedule: Q04DX003 (ip), vehicle: saline sonified 119 % of control | [15] 96 % of control | dose: 400.0 mg/kg/injection, schedule: Q04DX003 (ip), vehicle: saline sonified 106 % of control

COCCOc1nccc(N)n1
inactive: dose: 25.0 mg/kg/injection, schedule: Q01DX001 (ip), vehicle: saline 97 % of control | dose: 50.0 mg/kg/injection, schedule: Q01DX001 (ip), vehicle: saline 97 % of control | [14] 100 % of control

C(=Nc1ccccc1)c1ccc[nH]1
inactive: [4] 100 % of control | [16] 93 % of control | [17] 96 % of control

O=C(Nc1cccc(Br)c1)c1ccc([N+](=O)[O-])s1
inactive: dose: 50.0 mg/kg/injection, schedule: Q01DX005 (ip), vehicle: water 89 % of control | dose: 100.0 mg/kg/injection, schedule: Q01DX005 (ip), vehicle: water 89 % of control | dose: 200.0 mg/kg/injection, schedule: Q01DX005 (ip), vehicle: water 89 % of control | dose: 400.0 mg/kg/injection, schedule: Q01DX005 (ip), vehicle: water 87 % of control

CC(=NC1CC(C)CC(C)(C)C1)C1CC1 (stereo unspecified)
inactive: dose: 55.0 mg/kg/injection, schedule: Q01DX Z (ip), vehicle: methylcellulose (MC) 100 % of control | dose: 83.0 mg/kg/injection, schedule: Q01DX Z (ip), vehicle: methylcellulose (MC) 89 % of control | dose: 125.0 mg/kg/injection, schedule: Q01DX Z (ip), vehicle: methylcellulose (MC) 100 % of control

C=CC[Se]c1ncnc2c1ccn2C1OC(CO)C(O)C1O (stereo unspecified)
inactive: dose: 12.5 mg/kg/injection, schedule: Q01DX005 (ip), vehicle: saline 101 % of control | dose: 25.0 mg/kg/injection, schedule: Q01DX005 (ip), vehicle: saline 107 % of control | dose: 50.0 mg/kg/injection, schedule: Q01DX005 (ip), vehicle: saline 107 % of control | dose: 100.0 mg/kg/injection, schedule: Q01DX005 (ip), vehicle: saline 102 % of control

CN(/N=C/c1ccccn1)C(N)=S
inactive: dose: 75.0 mg/kg/injection, schedule: Q01DX001 (ip), vehicle: carboxymethylcellulose (CMC) 96 % of control | dose: 150.0 mg/kg/injection, schedule: Q01DX001 (ip), vehicle: carboxymethylcellulose (CMC) 96 % of control | dose: 300.0 mg/kg/injection, schedule: Q01DX001 (ip), vehicle: carboxymethylcellulose (CMC) 97 % of control

CC(C)COC(=O)Cc1cccc2ccccc12
inactive: dose: 222.0 mg/kg/injection, schedule: Q01DX Z (ip), vehicle: saline 96 % of control | dose: 333.0 mg/kg/injection, schedule: Q01DX Z (ip), vehicle: saline 96 % of control | dose: 500.0 mg/kg/injection, schedule: Q01DX Z (ip), vehicle: saline 94 % of control

O=C1CCN(Cl)C(=O)N1Cl
inactive: dose: 5.0 mg/kg/injection, schedule: Q01DX001 (ip), vehicle: saline 93 % of control | dose: 10.0 mg/kg/injection, schedule: Q01DX001 (ip), vehicle: saline 95 % of control | dose: 20.0 mg/kg/injection, schedule: Q01DX001 (ip), vehicle: saline 97 % of control

O=c1[nH]cc(Br)c2sccc12
inactive: [4] 100 % of control | [16] 105 % of control

CCCCSc1nc(NCC)nc(NCC)n1
inactive: dose: 100.0 mg/kg/injection, schedule: Q04DX002 (sc), vehicle: olive oil, sesame oil, peanut oil 102 % of control | dose: 200.0 mg/kg/injection, schedule: Q04DX002 (sc), vehicle: olive oil, sesame oil, peanut oil 105 % of control | dose: 400.0 mg/kg/injection, schedule: Q04DX002 (sc), vehicle: olive oil, sesame oil, peanut oil 115 % of control

O=C(CCl)N1C(=O)CC(c2ccccc2)C1=O (stereo unspecified)
inactive: dose: 100.0 mg/kg/injection, schedule: Q04DX002 (ip), vehicle: saline with Tween-80 101 % of control | dose: 200.0 mg/kg/injection, schedule: Q04DX002 (ip), vehicle: saline with Tween-80 97 % of control | dose: 400.0 mg/kg/injection, schedule: Q04DX002 (ip), vehicle: saline with Tween-80 95 % of control

O=S(=O)(SSS(=O)(=O)c1ccc(Cl)cc1)c1ccc(Cl)cc1
inactive: [10] 90 % of control | [12] 90 % of control | [18] 90 % of control

O=C1NC(=O)c2ccc(S)c3cccc1c23
inactive: [1] 94 % of control | [2] 90 % of control | [3] 97 % of control

CCN(CC)C(=O)C1CN2CCc3cc(OC)c(OC)cc3C2CC1O (stereo unspecified)
inactive: [5] 97 % of control | [6] 108 % of control | [7] 105 % of control | [8] 105 % of control | [9] 103 % of control | [10] 97 % of control | [11] 118 % of control | [12] 110 % of control | [15] 115 % of control | [18] 105 % of control

O=CNC1(CO)CCCCC1
inactive: [13] 105 % of control | dose: 150.0 mg/kg/injection, schedule: Q01DX001 (ip), vehicle: saline 102 % of control | dose: 300.0 mg/kg/injection, schedule: Q01DX001 (ip), vehicle: saline 96 % of control

CNc1nc(SCc2ccc(F)cc2)ncc1C
inactive: dose: 25.0 mg/kg/injection, schedule: Q01DX Z (ip), vehicle: methylcellulose (MC) 96 % of control | dose: 50.0 mg/kg/injection, schedule: Q01DX Z (ip), vehicle: methylcellulose (MC) 103 % of control

CCOC(=O)N1CCC2(CC1)NC(=O)c1ccccc1N2
inactive: [1] 98 % of control | [4] 100 % of control | [2] 97 % of control | [16] 102 % of control | [3] 97 % of control | [17] 96 % of control

O=C(Oc1ccccc1)Oc1c(Cl)cc([N+](=O)[O-])cc1[N+](=O)[O-]
inactive: dose: 100.0 mg/kg/injection, schedule: Q04DX003 (ip), vehicle: Klucel (hydroxypropylcellulose) (HPC) 100 % of control | dose: 200.0 mg/kg/injection, schedule: Q04DX003 (ip), vehicle: Klucel (hydroxypropylcellulose) (HPC) 100 % of control | dose: 400.0 mg/kg/injection, schedule: Q04DX003 (ip), vehicle: Klucel (hydroxypropylcellulose) (HPC) 93 % of control

c1ccc(-c2cnc(-c3ccccc3)[nH]2)cc1
inactive: [4] 97 % of control | [16] 100 % of control | [17] 100 % of control
